Results taken from patent US20180116993A1, “MODULATORS OF FARNESOID X RECEPTOR AND METHODS FOR THE USE THEREOF” (XIAMEN UNIVERSITY, priority 2015, published 2018).
Marks after values point to notes of the source that are not given here.

Columns and labels:
[1] = test system: mice with APAP-induced liver injury; assay: Acetaminophen (APAP)-induced liver injury in mouse; assay type: in vivo; details: for ALT (U/L): 5 mg/kg i.p. once daily for five days, 8-week age mice, serum, vehicle 786 ± 111; for Liver morphology by H&E staining (FIG. 1): 10 mg/kg (Tschimganine 20 mg/kg) i.p. five days, then APAP, compared to severe liver injury in control group; for expression levels of GPX1 and UGT1α1 in liver: mRNA by RT-PCR; for expression levels of GPX1 and UGT1α1 in liver / activities of serum AST, ALT and LDH: vs vehicle control group, Table 5 (not given)
Excerpt: Methods: Acetaminophen (APAP)-induced liver injury in mouse is a commonly used model to study drugs protecting liver. Overdose of APAP causes liver injury by inducing the production of reactive oxygen species and reactive nitrogen species, and excessive consumption of reductive substances such as antioxidant glutathione (GSH), leading to the reduction of GSH in vivo, and the following upregulation of the activities of the aspartate aminotransferase (AST), the alanine aminotransferase (ALT) and the lactate dehydrogenase (LDH), which will result in liver inflammation and necrosis. In this example, the APAP-induced liver injury was used to detect the protection and repair functions of our compounds in liver injury.
One-year or 8-week age mice were maintained under environmentally controlled conditions with free access to standard chow diet and water. Animal experiments were conducted in the barrier facility of the Laboratory Animal Center, Xiamen University, approved by the Institutional Animal Use and Care Committee of Xiamen University, China.
Compounds were solved with DMSO and then prepared to work concentration with 40% HBC (2-hydroxypropyl-β-cyclodextrin) in which the final work concentrations of compounds are 5 mg/kg body weight, 10 mg/kg or 20 mg/kg in 100 μl injection volume and the concentration of DMSO is 10%. Compounds were intraperitoneal (i.p.) injected once daily for five days. For Feroline and Tschimganine, one-year age mice were used in the experiment. For other compounds, 8-week age mice were used. […] For Tschimganine, 20 mg/kg dose of compound was administered to mice. For other compounds, 5 mg/kg dose of compounds were administered to mice. Six hours after the fifth injection, 500 mg/kg body weight of APAP solved in PBS was i.p. injected to the mice. 24 hours later, mice were sacrificed. Part of each liver was fixed in 4% paraformaldehyde, and the liver histology characterization was analyzed by haematoxylin and eosin (H&E) staining with paraffin-embedded sections by standard procedures. Other liver tissues were collected for detecting the GSH levels, and the mRNA expression of genes involved in liver repairing, such as GPX1 and UGT1a1, by RT-PCR. The serums were collected to measure enzymes activities including AST, ALT and LDH. For the synthetic derivatives, ALT and GSH were selected as indicating markers for the function of these compounds.

[2] = test system: inflammatory cytokines in tissues of db/db mice; assay: Inflammatory cytokine mRNA levels in tissues of high-fat diet fed db/db mice (RT-PCR); assay type: in vivo, mouse; details: 5 mg/kg; for mRNA level of iNOS (fold), Liver tissue: vehicle 1.06 ± 0.14; for mRNA level of iNOS (fold), Colon tissue: vehicle 1.12 ± 0.23
In short: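 Cytokine and marker transcripts (iNOS, IFNγ, TGFβ, TNFα, COX2, IL-1β, IL-6, SAA1, MIP-1α, CD36) quantified by RT-PCR in liver, kidney and white adipose tissue of high-fat diet fed db/db mice.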

SOD2 = assay: mRNA level of antioxidant gene SOD2 in livers of db/db mice; assay type: in vivo, mouse; details: 10 mg/kg, vehicle 1 ± 0.3
db/db mice = assay: Serum/blood metabolic parameters in high-fat diet fed db/db mice; assay type: in vivo, mouse
In short: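 db/db mice aged 8–10 weeks on high-fat diet received compounds i.p. once daily for 7, 10, 11 or 14 days, then were fasted 6 h and sacrificed. Serum glucose (glucose oxidase), insulin (ELISA), cholesterol, FFA and triglycerides measured by kits; some blood glucose by tail strips after the 6th injection and 16 h fast.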

[3] = test system: collagen related genes in mice livers; assay: Liver mRNA levels of collagen related genes in mice of Example 5 (RT-PCR); assay type: in vivo, mouse; details: 10 mg/kg; for Relative mRNA level of α-SMA: vehicle 1 ± 0.1; for Relative mRNA level of α1(I) collagen: vehicle 1.1 ± 0.2
Excerpt: NAFLD with excessive fat accumulation in liver will affect the blood and oxygen supplies to liver and the metabolism of liver organ, resulting in amounts of cell swelling, inflammatory infiltration and necrosis in liver. […] The levels of various collagen contents are higher in patients with liver cirrhosis. Masson's staining is a three-color staining protocol used in histology. It is widely used to study hepatic pathologies (cirrhosis). It's an authoritative and classic method to detect the existence and extend of accumulation of the collagen fiber. Sirius Red staining is also presented as a method for collagen determination. In this example, the Masson's staining and […] were performed to detect the collagen deposit in high fat diet fed db/db mice in Example 5. The Masson's staining kit (Nanjing Jiancheng Engineering Institute, China) was used for the staining of liver sections in Example 5. The Sirius red staining is performed as standard procedure. RT-PCR was used detect the expression of collagen and related genes such as α1(I) collagen, α2(I)collagen, α-SMA and MCP-1 in mice livers.

| SMILES | ALT (U/L) ([1]; then APAP 500 mg/kg) | mRNA level of iNOS (fold), Liver tissue [2] | mRNA level of iNOS (fold), Colon tissue [2] | mRNA level of SOD2 (fold) (SOD2) | Liver morphology by H&E staining (FIG. 1) [1] | expression levels of GPX1 and UGT1α1 in liver [1] | activities of serum AST, ALT and LDH [1] | Relative mRNA level of α-SMA [3] | Relative mRNA level of α1(I) collagen [3] | further results |
| --- | --- | --- | --- | --- | --- | --- | --- | --- | --- | --- |
| Cc1cc(C(=O)OC2CC3CCC2(C)C3(C)C)ccc1N (stereo not drawn) [XD-4, 1,7,7-trimethyl-bicyclo[2.2.1]-heptan-2-yl 4-amino-3-methylbenzoate] | 236 ± 65 ^a U/L | 0.41 ± 0.1^a fold | 0.53 ± 0.37^a fold | 1.6 ± 0.1 ^b fold | – | – | – | – | – | – |
| Nc1ccc(C(=O)OC2CCCCCCC2)cc1 [XD-16, cyclooctyl 4-aminobenzoate] | 127 ± 46 ^b U/L | 0.39 ± 0.18^a fold | 0.42 ± 0.22^a fold | 1.5 ± 0.1 ^b fold | – | – | – | – | – | Serum Glucose (mg/dl) (db/db mice; 10 mg/kg, treat for 10 days, vehicle 527 ± 63): 404 ± 46^a mg/dl |
| CC1(C)[C@@H]2CC[C@@]1(C)[C@@H](OC(=O)c1ccc(O)cc1)C2 [Tschimgine] | – | – | – | – | almost normal liver morphology | significantly upregulated | dramatically lower | 0.47 ± 0.1^a | 0.6 ± 0.13^a | Serum Triglyceride (mg/dl) (db/db mice; 10 mg/kg for 11 days, vehicle 96 ± 16): 38 ± 8^a mg/dl; Serum Cholesterol (mg/dl) (db/db mice; 10 mg/kg for 11 days, vehicle 121 ± 13): 96 ± 3^a mg/dl; Serum FFA (μM) (db/db mice; 10 mg/kg for 11 days, vehicle 371 ± 27): 302 ± 21^a μM; Blood Glucose (mg/dl) (db/db mice; 10 mg/kg, 11 days, tail blood after the 6th injection and 16 h fast, vehicle 452 ± 24): 252 ± 54^b mg/dl; Relative mRNA level of α2(I) collagen ([3]; vehicle 1.1 ± 0.1): 0.75 ± 0.9^a |
| Cc1cc(C(=O)OC2CCCCCCC2)ccc1O [XD-17, cyclooctyl 4-hydroxy-3-methylbenzoate] | 117 ± 39 ^c U/L | – | – | 1.8 ± 0.3 ^a fold | – | – | – | – | – | – |
| COc1cc(C(=O)O[C@H]2C[C@H]3CC[C@]2(C)C3(C)C)ccc1O [Tschimganine] | – | – | – | – | almost normal liver morphology | significantly upregulated | dramatically lower | 0.56 ± 0.12^a | 0.6 ± 0.12^a | Hepatic GSH (μM/g liver tissue) ([1]; 20 mg/kg i.p. once daily for five days, then APAP 500 mg/kg, one-year age mice, vehicle 8.0 ± 2.8): 14.9 ± 0.6^b μM/g liver tissue; Serum Insulin (ng/ml) (db/db mice; 10 mg/kg for 7 days, vehicle 12 ± 3): 4.7 ± 0.4^b ng/ml; Serum Glucose (mg/dl) (db/db mice; 10 mg/kg for 7 days, vehicle 521 ± 54): 342 ± 36^a mg/dl; Relative mRNA level of MCP-1 ([3]; vehicle 1.2 ± 0.2): 0.62 ± 0.13^a |
